# Source: PMC10916382, “Repurposing screen identifies novel candidates for broad-spectrum coronavirus antivirals and druggable host targets” (Antimicrobial Agents and Chemotherapy, 2024)
# Counter-ions that a name gives are not always drawn. Like-named read-outs stand apart in the source and are kept apart here. Where a SMILES comes first, the peptide text is derived from it. The star is where a group is joined. Cbz = O=C(OCc1ccccc1)*; CHN2 = [N-]=[N+]=C*
# What was measured:
# [1] = tested on: SARS-CoV-2
# [2] = in vitro
# [3] = tested on: Huh-7.5/F-Luc cells
# [4] = tested on: HCoV-229E; experiment: microbe, parasite or virus in culture; type: cell-based, Homo sapiens sapiens
# [5] = Calu-3 cells, immunofluorescence imaging
# [6] = Huh-7.5 cells, dose series, maximum tested dose 5 µM
# [7] = Anti-SARS-CoV-2 screening on Calu-3 cells: viability [% of control], Calu-3 cells
# [8] = HCoV 229E infection, dose series, max. dose 5 µM, read-out: IC50
smiles,measurement,setting,value
CS[C@H]1SC[C@H]2C(=O)N(C)[C@@H](C(C)C)C(=O)OC[C@@H](NC(=O)c3cnc4ccccc4n3)C(=O)N[C@@H](C)C(=O)N(C)[C@@H]1C(=O)N(C)[C@@H](C(C)C)C(=O)OC[C@@H](NC(=O)c1cnc3ccccc3n1)C(=O)N[C@@H](C)C(=O)N2C [Echinomycin],Anti-SARS-CoV-2 screening on Calu-3 cells: intracellular SARS-CoV-2 infection measured via immunofluorescence imaging [% of control],[1]; [5],92.25 % of control
same,viability,[2],95.2%
same,CC50 (µM),[3]; [6],greater than maximum tested dose
same,IC50,"[4]; Human coronavirus 229E, Huh7.5, read-out: IC50",0.1 µM
CN(C)CCOC1=Cc2ccccc2Sc2ccc(Cl)cc21 [zotepine],Anti-SARS-CoV-2 screening on Calu-3 cells: intracellular SARS-CoV-2 infection measured via immunofluorescence imaging [% of control],[1]; [5],107.66 % of control
same,"viability at 48 h, 5 µM",[2],98.1%
same,CC50 (µM),[3]; [6],greater than maximum tested dose
same,IC50,"[4]; Human coronavirus 229E, Huh7.5",1.04 µM
COc1ccc(C(C)C)cc1CN[C@@H]1C2CCN(CC2)[C@H]1C(c1ccccc1)c1ccccc1 [RFM-011-107-9],Anti-SARS-CoV-2 screening on Calu-3 cells: intracellular SARS-CoV-2 infection measured via immunofluorescence imaging [% of control],[1]; [5],82.87 % of control
same,"viability at 48 h, 5 µM",[2],83.9%
same,CC50 (µM),[3]; [6],greater than maximum tested dose
same,IC50,"[4]; Human coronavirus 229E, Huh7.5",1.1 µM
CCN(CC)CCN(Cc1ccc(-c2ccc(C(F)(F)F)cc2)cc1)C(=O)Cn1c(SCc2ccc(F)cc2)nc(=O)c2c1CCC2 [Darapladib],Anti-SARS-CoV-2 screening on Calu-3 cells: intracellular SARS-CoV-2 infection measured via immunofluorescence imaging [% of control],[1]; [5],107.62 % of control
same,"viability at 48 h, 5 µM",[2],103%
same,CC50 (µM),[3]; [6],greater than maximum tested dose
same,IC50,"[4]; Human coronavirus 229E, Huh7.5",0.3 µM
CN1CCC(CNc2ccc3ncc(-c4cccc(OC(F)(F)F)c4)n3n2)CC1 [SGI-1776],Anti-SARS-CoV-2 screening on Calu-3 cells: intracellular SARS-CoV-2 infection measured via immunofluorescence imaging [% of control],[1]; [5],100.18 % of control
same,viability,[2]; [7],94.5%
same,CC50 (µM),[3]; [6],greater than maximum tested dose
same,IC50,"[4]; Human coronavirus 229E, Huh7.5",0.56 µM
COc1cccc2c1C(=O)c1c(O)c3c(c(O)c1C2=O)C[C@@](O)(C(=O)CO)C[C@@H]3O[C@H]1C[C@H](N)[C@H](O[C@@H]2CCCCO2)[C@H](C)O1 [pirarubicin],Anti-SARS-CoV-2 screening on Calu-3 cells: intracellular SARS-CoV-2 infection measured via immunofluorescence imaging [% of control],[1]; [5],112.83 % of control
same,viability,[2]; [7],56.9%
same,CC50 (µM),[3]; [6],greater than maximum tested dose
same,IC50,"[4]; Human coronavirus 229E, Huh7.5",0.89 µM
CC(C)(C)NCc1ccc(Nc2ccnc3cc(Cl)ccc23)cc1O [N-tert-Butylisoquine],Anti-SARS-CoV-2 screening on Calu-3 cells: intracellular SARS-CoV-2 infection measured via immunofluorescence imaging [% of control],[1]; [5],111.10 % of control
same,viability,[2]; [7],106%
same,CC50 (µM),[3]; [6],greater than maximum tested dose
same,IC50,"[4]; Human coronavirus 229E, Huh7.5",0.54 µM
CCN(CC)CCOc1ccc(/C(=C(/Cl)c2ccccc2)c2ccccc2)cc1 [enclomiphene citrate],Anti-SARS-CoV-2 screening on Calu-3 cells: intracellular SARS-CoV-2 infection measured via immunofluorescence imaging [% of control],[1],91.35 % of control
same,"viability at 48 h, 5 µM",[2],102%
same,CC50 (µM),[3],greater than maximum tested dose
CNCc1ccc(OC)c([C@@]2(N3CCC[C@H]3c3ncco3)C(=O)N(S(=O)(=O)c3ccc(OC)cc3)c3ccc(Cl)cc32)c1 [RFM-011-199-9],Anti-SARS-CoV-2 screening on Calu-3 cells: intracellular SARS-CoV-2 infection measured via immunofluorescence imaging [% of control],[1]; [5],113.08 % of control
same,viability,[2]; [7],95.4%
same,CC50 (µM),[3]; [6],greater than maximum tested dose
same,IC50,"[4]; Human coronavirus 229E, Huh7.5",0.8 µM
CC/C(=C(\c1ccccc1)c1ccc(OCCN(C)C)cc1)c1ccccc1 [Tamoxifen citrate],Anti-SARS-CoV-2 screening on Calu-3 cells: intracellular SARS-CoV-2 infection measured via immunofluorescence imaging [% of control],[1],106.52 % of control
same,"viability at 48 h, 5 µM",[2],102%
same,CC50 (µM),[3],greater than maximum tested dose
CC(C)CC(NC(=O)OCc1ccccc1)C(=O)NC(C(=O)NCC(=O)C=[N+]=[N-])C(C)C (stereo not drawn) [Z LVG CHN2] (Cbz-Leu-Val-Gly-CHN2; configuration not given here),Anti-SARS-CoV-2 screening on Calu-3 cells: viability [% of control],[1]; Calu-3 cells,97.82 % of control
same,Anti-SARS-CoV-2 screening on Calu-3 cells: intracellular SARS-CoV-2 infection measured via immunofluorescence imaging [% of control],[1]; [5],105.09 % of control
same,CC50 (µM),[3]; [6],greater than maximum tested dose
same,% cell viability at max. dose [5 µM],[3]; at max. dose 5 µM,182.31%
same,IC50,[4]; read-out: IC50,0.07 µM
CN1C2CCC1CC(OC(c1ccccc1)c1ccc(Cl)cc1)C2.Cl (stereo not shown),Anti-SARS-CoV-2 screening on Calu-3 cells: viability [% of control],[1]; Calu-3 cells,110.96 % of control
same,Anti-SARS-CoV-2 screening on Calu-3 cells: intracellular SARS-CoV-2 infection measured via immunofluorescence imaging [% of control],[1]; [5],110.06 % of control
same,CC50 (µM),[3]; [6],greater than maximum tested dose
same,% cell viability at max. dose [5 µM],[3]; at max. dose 5 µM,144.12%
same,IC50,[4]; read-out: IC50,0.69 µM
CC(C)c1ccc2c(c1)C(N1CCN(CCO)CC1)Cc1ccc(F)cc1S2 (stereo not shown) [isofloxythepin],Anti-SARS-CoV-2 screening on Calu-3 cells: viability [% of control],[1]; Calu-3 cells,97.70 % of control
same,Anti-SARS-CoV-2 screening on Calu-3 cells: intracellular SARS-CoV-2 infection measured via immunofluorescence imaging [% of control],[1]; [5],105.07 % of control
same,CC50 (µM),[3]; [6],greater than maximum tested dose
same,% cell viability at max. dose [5 µM],[3]; at max. dose 5 µM,141.51%
same,IC50,[4]; [8],0.79 µM
Oc1cccc[c]1[Hg][Cl] [RFM-006-841-7],Anti-SARS-CoV-2 screening on Calu-3 cells: viability [% of control],[1]; Calu-3 cells,123.69 % of control
same,Anti-SARS-CoV-2 screening on Calu-3 cells: intracellular SARS-CoV-2 infection measured via immunofluorescence imaging [% of control],[1]; [5],99.62 % of control
same,% cell viability at max. dose [5 µM],"[3]; Huh-7.5/F-Luc cells, 5 µM",91.70%
same,CC50 (µM),"[3]; Huh-7.5/F-Luc cells, maximum tested dose 5 µM",greater than maximum tested dose
same,IC50,"[4]; HCoV-229E/R-Luc on Huh-7.5/F-Luc cells, dose series, max. dose 5 µM, read-out: IC50 (µM), HCoV 229E",1.35 µM
Cc1cccc(/C=N/Nc2cc(N3CCOCC3)nc(OCCc3ccccn3)n2)c1 [Target 16/Apilimod mesilate],Anti-SARS-CoV-2 screening on Calu-3 cells: viability [% of control],[1]; Calu-3 cells,101.93 % of control
same,Anti-SARS-CoV-2 screening on Calu-3 cells: intracellular SARS-CoV-2 infection measured via immunofluorescence imaging [% of control],[1]; [5],135.01 % of control
same,CC50 (µM),[3]; [6],greater than maximum tested dose
same,% cell viability at max. dose [5 µM],[3]; at max. dose 5 µM,124.74%
same,IC50,[4]; [8],0.2 µM
CN(C)CCCOC(CCCCc1ccccc1)c1ccccc1 (stereo not shown) [SM-3163],Anti-SARS-CoV-2 screening on Calu-3 cells: viability [% of control],[1]; Calu-3 cells,103.94 % of control
same,Anti-SARS-CoV-2 screening on Calu-3 cells: intracellular SARS-CoV-2 infection measured via immunofluorescence imaging [% of control],[1]; [5],105.69 % of control
same,CC50 (µM),[3]; [6],greater than maximum tested dose
same,% cell viability at max. dose [5 µM],[3]; at max. dose 5 µM,166.12%
same,IC50,[4]; [8],0.77 µM
COc1cc(C(C)=O)ccc1OCCCN1CCC(C(O)(c2ccc(F)cc2)c2ccc(F)cc2)CC1 [AHR-5333],Anti-SARS-CoV-2 screening on Calu-3 cells: viability [% of control],[1]; Calu-3 cells,103.33 % of control
same,Anti-SARS-CoV-2 screening on Calu-3 cells: intracellular SARS-CoV-2 infection measured via immunofluorescence imaging [% of control],[1]; [5],98.57 % of control
same,CC50 (µM),[3]; [6],greater than maximum tested dose
same,% cell viability at max. dose [5 µM],[3]; at max. dose 5 µM,162.61%
same,IC50,[4]; [8],1 µM
Cc1ccc(Sc2ccccc2C2CCNCC2)cc1 [LU-AA24530],Anti-SARS-CoV-2 screening on Calu-3 cells: viability [% of control],[1]; Calu-3 cells,106.74 % of control
same,Anti-SARS-CoV-2 screening on Calu-3 cells: intracellular SARS-CoV-2 infection measured via immunofluorescence imaging [% of control],[1]; [5],100.77 % of control
same,CC50 (µM),[3]; [6],greater than maximum tested dose
same,% cell viability at max. dose [5 µM],[3]; at max. dose 5 µM,150.91%
same,IC50,[4]; [8],0.68 µM
CN(C)C(C)(C)CSc1nc2ccccc2cc1-c1ccccc1 [ICI-170809],Anti-SARS-CoV-2 screening on Calu-3 cells: viability [% of control],[1]; Calu-3 cells,98.23 % of control
same,Anti-SARS-CoV-2 screening on Calu-3 cells: intracellular SARS-CoV-2 infection measured via immunofluorescence imaging [% of control],[1]; [5],103.59 % of control
same,CC50 (µM),[3]; [6],greater than maximum tested dose
same,% cell viability at max. dose [5 µM],[3]; at max. dose 5 µM,138.76%
same,IC50,[4]; [8],0.52 µM
CN[C@H]1CC[C@@H](c2ccc(Cl)c(Cl)c2)c2ccccc21 [sertraline hydrochloride],Anti-SARS-CoV-2 screening on Calu-3 cells: intracellular SARS-CoV-2 infection measured via immunofluorescence imaging [% of control],[1],122.16 % of control
same,"viability at 48 h, 5 µM",[2],101%
same,CC50 (µM),[3],greater than maximum tested dose
CN(C)CCCN1c2ccccc2Sc2ccc(Cl)cc21 [Chlorpromazine69-09-0],Anti-SARS-CoV-2 screening on Calu-3 cells: viability [% of control],[1]; Calu-3 cells,118.10 % of control
same,Anti-SARS-CoV-2 screening on Calu-3 cells: intracellular SARS-CoV-2 infection measured via immunofluorescence imaging [% of control],[1]; [5],120.36 % of control
same,CC50 (µM),[3]; [6],greater than maximum tested dose
same,% cell viability at max. dose [5 µM],[3]; at max. dose 5 µM,144.29%
same,IC50,[4]; [8],0.77 µM
